Data from patent US10610522B2, “Methods for retreating irritable bowel syndrome (IBS)” (Salix Pharmaceuticals, Inc., priority 2014, dated 2020).

Key:
P-glycoprotein = molecular target: T1, P-glycoprotein (Homo sapiens, UniProt P08183); assay: Bidirectional permeability and efflux ratio of rifaximin in Caco-2 cells with P-glycoprotein inhibitors; type: in vitro ADME; settings: for Decrease of rifaximin ER in presence of GF120918 (0.5 μM) and verapamil (60 μM): rifaximin 5 μM
T1 construct: Caco-2 cells, a human epithelial colorectal adenocarcinoma cell line; endogenous in cells; host or cells: Caco-2
T1 sequence (P08183 whole entry): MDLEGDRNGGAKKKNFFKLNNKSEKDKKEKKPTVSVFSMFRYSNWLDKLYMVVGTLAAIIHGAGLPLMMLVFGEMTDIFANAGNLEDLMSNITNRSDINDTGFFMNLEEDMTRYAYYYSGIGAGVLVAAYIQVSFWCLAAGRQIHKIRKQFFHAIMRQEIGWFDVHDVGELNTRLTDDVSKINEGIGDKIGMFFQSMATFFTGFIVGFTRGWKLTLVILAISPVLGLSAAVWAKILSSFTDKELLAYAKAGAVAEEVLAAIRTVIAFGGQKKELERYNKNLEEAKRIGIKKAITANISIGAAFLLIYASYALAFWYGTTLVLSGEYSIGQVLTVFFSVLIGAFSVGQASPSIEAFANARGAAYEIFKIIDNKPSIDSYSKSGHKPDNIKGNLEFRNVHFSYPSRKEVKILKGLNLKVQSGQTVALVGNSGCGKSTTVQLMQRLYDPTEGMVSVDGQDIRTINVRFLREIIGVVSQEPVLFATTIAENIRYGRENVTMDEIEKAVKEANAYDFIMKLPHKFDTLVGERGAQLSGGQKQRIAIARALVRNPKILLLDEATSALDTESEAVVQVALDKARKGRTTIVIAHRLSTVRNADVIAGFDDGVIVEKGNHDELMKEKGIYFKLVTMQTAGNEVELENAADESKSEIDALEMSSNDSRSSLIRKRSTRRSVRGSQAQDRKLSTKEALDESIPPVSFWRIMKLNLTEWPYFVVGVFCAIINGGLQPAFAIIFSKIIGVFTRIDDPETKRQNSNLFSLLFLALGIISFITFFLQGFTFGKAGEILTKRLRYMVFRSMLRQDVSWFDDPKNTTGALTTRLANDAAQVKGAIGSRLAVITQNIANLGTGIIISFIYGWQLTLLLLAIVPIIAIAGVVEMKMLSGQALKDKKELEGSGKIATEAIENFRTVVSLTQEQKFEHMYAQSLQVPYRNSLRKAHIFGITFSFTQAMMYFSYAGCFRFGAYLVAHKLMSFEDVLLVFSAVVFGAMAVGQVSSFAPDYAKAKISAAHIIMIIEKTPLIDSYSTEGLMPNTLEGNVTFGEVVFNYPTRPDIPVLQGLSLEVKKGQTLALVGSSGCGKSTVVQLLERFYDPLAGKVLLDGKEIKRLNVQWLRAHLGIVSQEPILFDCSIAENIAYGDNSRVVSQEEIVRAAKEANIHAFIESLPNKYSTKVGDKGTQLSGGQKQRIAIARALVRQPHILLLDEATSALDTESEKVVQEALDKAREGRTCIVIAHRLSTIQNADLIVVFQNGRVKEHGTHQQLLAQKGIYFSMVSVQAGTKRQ
From the text: The ER is the ratio of efflux permeability (basolateral to apical, B-A) to absorptive permeability (apical to basolateral, A-B), and values >1 are indicative of greater efflux than absorption.

non-constipation IBS = assay: Study 2 (TARGET 2): rifaximin 550 mg TID 14 days vs placebo in non-C IBS, 10-week follow-up; type: in vivo, human; settings: 550 mg TID
Protocol: The primary efficacy endpoint of the study was the proportion of subjects who achieved adequate relief of IBS symptoms for at least 2 weeks during the first 4 weeks of the 10-week follow-up phase.
Two measures of efficacy were assessed.
Subjects were questioned on the relief of overall IBS symptoms and bloating. […] The analyses defined success as a “yes” response to questions regarding adequate relief. […]
All subpopulations in the study responded to therapy. Baseline severity was determined during screening for Abdominal Pain/Discomfort and Bloating, and the number, type (normal, hard, loose) and urgency of bowel movements. Duration of effect was assessed in a ten week follow-up period. […]
In TARGET 1 and 2, the primary endpoint was the proportion of patients who achieved adequate relief of IBS symptoms for at least 2 of 4 weeks during the month following 14 days of treatment. Adequate relief was defined as a response of “yes” to the following weekly Subject Global Assessment (SGA) question: “In regards to your IBS symptoms, compared to the way you felt before you started study medication, have you, in the past 7 days, had adequate relief of your IBS symptoms? [Yes/No]”
The key secondary endpoint was the proportion of patients who achieved adequate relief of IBS-related bloating for at least 2 of 4 weeks during the month following 2 weeks of treatment. Adequate relief of IBS-related bloating was defined as a response of “yes” to the following weekly (every 7 days) SGA question: “In regards to your IBS symptom of bloating, compared to the way you felt before you started study medication, have you, in the past 7 days, had adequate relief of your IBS symptom of bloating? […]

[1] = Weeks 3-6, Population: PP (N = 311)
[2] = at least 2 of Weeks 3-6, N = 315, LOCF
[3] = Age Group: <65 (N = 281), Weeks 3-6
[4] = Gender: Female (N = 226), Weeks 3-6
[5] = Gender: Male (N = 85), Weeks 3-6
[6] = IBS Subtype: Alternating-predominant, Weeks 3-6
[7] = IBS Subtype: Diarrhoea-predominant, Weeks 3-6

Compound: CO[C@H]1/C=C/O[C@@]2(C)Oc3c(C)c(O)c4c(O)c(c5c(nc6cc(C)ccn65)c4c3C2=O)NC(=O)/C(C)=C\C=C\[C@H](C)[C@H](O)[C@@H](C)[C@@H](O)[C@@H](C)[C@H](OC(C)=O)[C@@H]1C [Rifaximin, (2S,16Z,18E,20S,21S,22R,23R,24R,25S,26S,27S,28E)-5,6,21,23,25 Pentahydroxy-27-methoxy-2,4,11,16,20,22,24,26-octamethyl-2,7-(epoxypentadeca-(1,11,13)trienimino) benzofuro (4,5-e) pyrido(1,2-a) benzimidazole-1,15(2H)-dione,25-acetate]
- Maximum inhibition of rifaximin efflux permeability due to P-glycoprotein inhibition by verapamil (P-glycoprotein; Caco-2 cells): 12 fold
- P-glycoprotein substrate status (P-glycoprotein; Caco-2 cells and membrane vesicles): substrate for P-glycoprotein
- Papp A→B (P-glycoprotein; human, Caco-2 monolayers, 0.5, 5, and 50 μM, read-out: Net permeability in the absorptive direction): ~10 nm/s
- Decrease of rifaximin ER in presence of GF120918 (0.5 μM) and verapamil (60 μM) (P-glycoprotein; Round 1): 8- to 12 fold
- Decrease of rifaximin ER in presence of GF120918 (0.5 μM) and verapamil (60 μM) (P-glycoprotein; Round 2): 3- to 6 fold
- Subjects with skin or subcutaneous tissue disorders (non-constipation IBS): 1.3%
- Adequate relief of IBS symptom of bloating based on daily measures, Failure (non-constipation IBS; Population: ITT (N = 315)): 182 (57.8%) N (%)
- Adequate relief of IBS symptom of bloating based on daily measures, Success (non-constipation IBS; Population: ITT (N = 315)): 133 (42.2%) N (%)
- Adequate relief of IBS symptoms based on daily measures, Failure (non-constipation IBS; Population: ITT (N = 315)): 200 (63.5%) N (%)
- Adequate relief of IBS symptoms based on daily measures, Success (non-constipation IBS; Population: ITT (N = 315)): 115 (36.5%) N (%)
- Adequate relief of IBS symptom of bloating based on daily measures, Failure (non-constipation IBS; Population: PP (N = 311)): 180 (57.9%) N (%)
- Adequate relief of IBS symptom of bloating based on daily measures, Success (non-constipation IBS; Population: PP (N = 311)): 131 (42.1%) N (%)
- Adequate relief of IBS symptoms based on daily measures, Failure (non-constipation IBS; Population: PP (N = 311)): 196 (63.0%) N (%)
- Adequate relief of IBS symptoms based on daily measures, Success (non-constipation IBS; Population: PP (N = 311)): 115 (37.0%) N (%)
- Adequate relief of IBS symptom of bloating (weekly SGA), Failure (non-constipation IBS; [1]): 187 (60.1%) N (%)
- Adequate relief of IBS symptom of bloating (weekly SGA), Success (non-constipation IBS; [1]): 124 (39.9%) N (%)
- Adequate relief of IBS symptoms (weekly SGA), Failure (non-constipation IBS; [1]): 187 (60.1%) N (%)
- Adequate relief of IBS symptoms (weekly SGA), Success (non-constipation IBS; [1]): 124 (39.9%) N (%)
- Adequate relief of IBS symptom of bloating (weekly SGA), Failure (non-constipation IBS; [2]): 190 (60.3%) n (%)
- Adequate relief of IBS symptom of bloating (weekly SGA), Success (non-constipation IBS; [2]): 125 (39.7%) n (%)
- Adequate relief of IBS symptoms (weekly SGA), Failure (non-constipation IBS; [2]): 190 (60.3%) n (%)
- Adequate relief of IBS symptoms (weekly SGA), Success (non-constipation IBS; [2]): 125 (39.7%) n (%)
- Subjects discontinued study early for Adverse Event/Serious Adverse Event (non-constipation IBS; randomized subjects (316)): 0 n (%)
- Adequate relief of IBS symptom of bloating (weekly SGA), Failure (non-constipation IBS; [3]): 171 (60.9%) N (%)
- Adequate relief of IBS symptom of bloating (weekly SGA), Success (non-constipation IBS; [3]): 110 (39.1%) N (%)
- Adequate relief of IBS symptoms (weekly SGA), Failure (non-constipation IBS; [3]): 171 (60.9%) N (%)
- Adequate relief of IBS symptoms (weekly SGA), Success (non-constipation IBS; [3]): 110 (39.1%) N (%)
- Adequate relief of IBS symptom of bloating (weekly SGA), Failure (non-constipation IBS; Age Group: >=65, Weeks 3-6): 16 (53.3%) N (%)
- Adequate relief of IBS symptom of bloating (weekly SGA), Success (non-constipation IBS; Age Group: >=65, Weeks 3-6): 14 (46.7%) N (%)
- Adequate relief of IBS symptoms (weekly SGA), Failure (non-constipation IBS; Age Group: >=65, Weeks 3-6): 16 (53.3%) N (%)
- Adequate relief of IBS symptoms (weekly SGA), Success (non-constipation IBS; Age Group: >=65, Weeks 3-6): 14 (46.7%) N (%)
- Adequate relief of IBS symptom of bloating (weekly SGA), Failure (non-constipation IBS; [4]): 128 (56.6%) N (%)
- Adequate relief of IBS symptom of bloating (weekly SGA), Success (non-constipation IBS; [4]): 98 (43.4%) N (%)
- Adequate relief of IBS symptoms (weekly SGA), Failure (non-constipation IBS; [4]): 130 (57.5%) N (%)
- Adequate relief of IBS symptoms (weekly SGA), Success (non-constipation IBS; [4]): 96 (42.5%) N (%)
- Adequate relief of IBS symptom of bloating (weekly SGA), Failure (non-constipation IBS; [5]): 59 (69.4%) N (%)
- Adequate relief of IBS symptom of bloating (weekly SGA), Success (non-constipation IBS; [5]): 26 (30.6%) N (%)
- Adequate relief of IBS symptoms (weekly SGA), Failure (non-constipation IBS; [5]): 57 (67.1%) N (%)
- Adequate relief of IBS symptoms (weekly SGA), Success (non-constipation IBS; [5]): 28 (32.9%) N (%)
- Adequate relief of IBS symptom of bloating (weekly SGA), Failure (non-constipation IBS; [6]): 19 (55.9%) N (%)
- Adequate relief of IBS symptom of bloating (weekly SGA), Success (non-constipation IBS; [6]): 15 (44.1%) N (%)
- Adequate relief of IBS symptoms (weekly SGA), Failure (non-constipation IBS; [6]): 21 (61.8%) N (%)
- Adequate relief of IBS symptoms (weekly SGA), Success (non-constipation IBS; [6]): 13 (38.2%) N (%)
- Adequate relief of IBS symptom of bloating (weekly SGA), Failure (non-constipation IBS; [7]): 168 (60.6%) N (%)
- Adequate relief of IBS symptom of bloating (weekly SGA), Success (non-constipation IBS; [7]): 109 (39.4%) N (%)
- Adequate relief of IBS symptoms (weekly SGA), Failure (non-constipation IBS; [7]): 166 (59.9%) N (%)
- Adequate relief of IBS symptoms (weekly SGA), Success (non-constipation IBS; [7]): 111 (40.1%) N (%)
- Adequate relief of IBS symptom of bloating (weekly SGA), Failure (non-constipation IBS; Race: Non-White (N = 31), Weeks 3-6): 17 (54.8%) N(%)
